# Measured values taken from patent US9606124B2, “Methods of detecting and treating stem-cell containing solid tumors” (The Regents of The University of Michigan, priority 2008, dated 2017).
# Entries after “also recorded” stand apart in the source; their conditions may differ.
# Legend:
# [1] = test system: CXCR1-positive, CXCR1-negative and unsorted populations of SUM159 cells; experiment: MTT assay on flow sorted CXCR1-positive, CXCR1-negative and unsorted populations; format: cell-based, human; details: for cell viability of the unsorted / unseparated population: SUM159 cells
# Experimental: (§1) Cell viability. […] Nuclei were counterstained with DAPI/antifade (Invitrogen).
# (§2) Flow cytometry analysis. […] CD95/FAS staining were performed utilizing an anti-CD95 labeled APC (1:20, BD biosciences). […] Fresh cells were stained with 1 μg/ml PI (Sigma) for 5 min for viability.
# [2] = test system: CXCR1-positive population of SUM159 cells; experiment: Flow cytometry of the CXCR1-positive population of SUM159 cells; format: cell-based, human; details: repertaxin, repertaxin plus anti-FAS-ligand, FAS agonist
# Experimental: as §2
# [3] = test system: HCC1954 cells; experiment: Metastasis formation after intracardiac injection of HCC1954 cells (bioluminescence); format: in vivo, NOD/SCID mice; details: 250,000 cells intracardiac, repertaxin 15 mg/kg s.c. twice a day 28 days vs saline
# Experimental: (§3) Intracardiac inoculation. […] Twelve hours after intracardiac injections, mice were begun on twice per day repertaxin injections or saline for the controls. Bioluminescence detection. Baseline bioluminescence was assessed before inoculation and each week thereafter inoculations. Bioluminescence detection procedures was performed as previously described ([…] et al. Cancer Res. 69:1302-1313, herein incorporated by reference in its entirety). Normalized photon flux represents the ratio of the photon flux detected each week after inoculations and the photon flux detected before inoculation.
# [4] = test system: SUM159 cells; experiment: TUNEL assay, apoptotic cells; format: cell-based, human; details: 4 days of treatment
# Excerpt: (§4) Cell viability. […] After one day, treatment with repertaxin was started. […]. […] Nuclei were counterstained with DAPI/antifade (Invitrogen).
# [5] = test system: FAK Tyr397 and AKT Ser473 phosphorylation; experiment: Western blotting of FAK/AKT activation in SUM159; format: cell-based, human; details: 100 nM, two days
# Experimental: Western blotting. Cells were lysed in a laemmli buffer and loaded onto SDS-polyacrylamide gels. Blots were incubated with the respective primary antibodies diluted in TBST (containing 0.1% Tween20 and 2% BSA) either overnight at 4o, or 2 hours at room temperature. Blots were washed and incubated with appropriate secondary antibodies (GE Healthcare, UK) and detected using SuperSignal West Pico Chemiluminescent Substrate (Pierce).
# [6] = test system: FOXO3A; experiment: Immunofluorescence staining of FOXO3A localization in SUM159 cells; format: cell-based, human
# Experimental: The non-treated SUM159 cells presented 80% of cells positive in the cytoplasm for FOXOA3. […] The change in FOXOA3 cellular localation from the cytoplasm to the nucleus indicates an activation of FOXOA3 protein.
# (§5) Immunostaining. For immunofluorescent staining, sorted CXCR1-positive cells were fixed with 95% methanol at −20° C. for 10 minutes. Cells were rehydrated in PBS and incubated with respective antibodies at room temperature for 1 hour. Primary antibodies used were P-FAK (1:50, Cell Signaling Technology), P-AKT (1:300, Cell Signaling Technology), and FOXO3a (1:250, Cell Signaling Technology). Slides were then washed and incubated 30 minutes with PE conjugated secondary antibodies (Jackson labs). The nuclei were counterstained with DAPI/antifade (Invitrogen) and coverslipped. […] Immunohistochemistry for the detection of ALDH1 (1:100, BD biosciences), P-FAK, P-AKT, FOXO3a expression was done on paraffin section (Ginestier et al. Am. J Pathol. 161:1223-1233, herein incorporated by reference in its entirety). Staining was done utilizing the Histostainplus kit (Zymed laboratories). Diaminobenzidine (DAB) or 3-amino-9-ethylcarbazole (AEC) was used as chromogen and sections were counterstained with hematoxylin.
# [7] = test system: FOXO3A; experiment: Immunohistochemistry of FOXO3A in xenotransplants; design: species or system NOD/SCID mice; details: mouse, in vivo
# Experimental: as §5
# [8] = test system: phospho-FAK; experiment: Immunohistochemistry of phospho-FAK in xenotransplants; design: species or system NOD/SCID mice; details: mouse, in vivo
# Experimental: as §5
# [9] = test system: normal mammary epithelial cells from reduction mammoplasties; experiment: MTT assay on normal mammary epithelial cells; format: cell-based, human; details: adherent; five days; repertaxin 100 nM or 500 nM, FAS agonist 500 ng/ml
# Experimental: Dissociation of mammary tissue. 100-200 g of normal breast tissue from reduction mammoplasties was minced with scalpels, dissociated enzymatically, and single cells were cultured in suspension to generate mammospheres or on a collagen substratum in adherent condition to induce cellular differentiation (Dontu et al. Genes Dev. 17:1253-1270, herein incorporated by reference in its entirety).
# as §4
# [10] = test system: phospho-AKT; experiment: Immunohistochemistry of phospho-AKT in xenotransplants; design: species or system NOD/SCID mice; details: mouse, in vivo
# Experimental: as §5
# [11] = test system: HCC1954 cells; experiment: MTT assay, cell viability of HCC1954 cells; format: cell-based, human; details: repertaxin 100 nM, antibodies 10 μg/ml
# Excerpt: as §1
# [12] = test system: normal mammary epithelial cells; experiment: Mammosphere formation by normal mammary epithelial cells; format: cell-based, human; details: repertaxin 100 nM for four to fifteen days adherent, then suspension
# [13] = test system: MDA-MB-453 cells; experiment: Metastasis formation after intracardiac injection of MDA-MB-453 cells (bioluminescence); format: in vivo, NOD/SCID mice; details: 250,000 cells intracardiac, repertaxin 15 mg/kg s.c. twice a day 28 days vs saline
# Experimental: as §3
smiles,measurement,setting,value
CC(C)Cc1ccc([C@@H](C)C(=O)NS(C)(=O)=O)cc1 [Repertaxin],cell viability of the unsorted / unseparated population,[1],massive cell death
same,cell viability of the unsorted / unseparated population,[1]; listed as repertaxin,decrease in cell viability
same,cell viability of the CXCR1-negative population,[1]; sorted SUM159 cells,no effect
same,cell viability of the CXCR1-positive population,[1]; sorted SUM159 cells,decreased cell viability
same,cell viability of the CXCR1-positive population,"[1]; sorted SUM159 cells, listed as repertaxin",decrease in cell viability
same,percent of CXCR1-positive cells,[2],massive decrease
same,metastasis formation (normalized photon flux),[3],significantly reduced metastasis formation
same,metastasis formation (normalized photon flux),[3]; listed as repertaxin,statistically significant decrease in metastasis formation
same,apoptotic cells (TUNEL),[4],36%
same,FAK Tyr397 and AKT Ser473 phosphorylation (western blot),[5],decrease in FAK Tyr397 and AKT Ser473 phosphorylation
same,FAK Tyr397 and AKT Ser473 phosphorylation (western blot),[5]; listed as repertaxin,decrease in FAK Tyr^397 and AKT Ser^473 phosphorylation
same,cells positive in the nucleus for FOXOA3,"[6]; SUM159, 100 nM, 2 days",80%
same,FOXO3A localization (immunofluorescence),"[6]; sorted CXCR1-positive cells, listed as repertaxin",shuttled to the nucleus; also recorded: re-localization of FOXO3A to the nucleus
same,nuclear FOXO3A in treated tumors,[7],detected
same,cells with membranous phospho-FAK expression in treated tumors,[8],abolished; also recorded: no expression was detected
same,viability of normal mammary epithelial cells (MTT),[9],no effect
same,cells expressing phospho-AKT in treated tumors,[10],complete inhibition; also recorded: no expression was detected
same,cell viability (MTT),[11],decrease in cell viability was observed after 3 days of treatment; also recorded: significant reduction
same,mammosphere formation by normal mammary epithelial cells,[12],significantly decreased mammosphere formation; also recorded: significant decrease of mammosphere-initiating cells
same,metastasis formation (normalized photon flux),[13],did not have any effect on metastasis formation
